Data: PMC10997755, “Discovery of a small-molecule inhibitor that traps Polθ on DNA and synergizes with PARP inhibitors” (Nature Communications, 2024)
Where “and” joins values, the source holds several entries; their conditions need not be identical. Equal values may be shown once. Entries after “also recorded” stand apart in the source; their conditions may differ.

Assays:
[1] = target: T1, Polθ-pol (Homo sapiens, UniProt O75417); experiment: Cy5 fluorescence Polθ-pol DNA synthesis (strand displacement) IC50 assay; assay type: biochemical; details: Polθ-pol DNA synthesis, Cy5 fluorescence
T1 construct: purified recombinant human Polθ-pol (comprising amino acid residues 1792–2590); made in house
T1 sequence (O75417 1792-2590): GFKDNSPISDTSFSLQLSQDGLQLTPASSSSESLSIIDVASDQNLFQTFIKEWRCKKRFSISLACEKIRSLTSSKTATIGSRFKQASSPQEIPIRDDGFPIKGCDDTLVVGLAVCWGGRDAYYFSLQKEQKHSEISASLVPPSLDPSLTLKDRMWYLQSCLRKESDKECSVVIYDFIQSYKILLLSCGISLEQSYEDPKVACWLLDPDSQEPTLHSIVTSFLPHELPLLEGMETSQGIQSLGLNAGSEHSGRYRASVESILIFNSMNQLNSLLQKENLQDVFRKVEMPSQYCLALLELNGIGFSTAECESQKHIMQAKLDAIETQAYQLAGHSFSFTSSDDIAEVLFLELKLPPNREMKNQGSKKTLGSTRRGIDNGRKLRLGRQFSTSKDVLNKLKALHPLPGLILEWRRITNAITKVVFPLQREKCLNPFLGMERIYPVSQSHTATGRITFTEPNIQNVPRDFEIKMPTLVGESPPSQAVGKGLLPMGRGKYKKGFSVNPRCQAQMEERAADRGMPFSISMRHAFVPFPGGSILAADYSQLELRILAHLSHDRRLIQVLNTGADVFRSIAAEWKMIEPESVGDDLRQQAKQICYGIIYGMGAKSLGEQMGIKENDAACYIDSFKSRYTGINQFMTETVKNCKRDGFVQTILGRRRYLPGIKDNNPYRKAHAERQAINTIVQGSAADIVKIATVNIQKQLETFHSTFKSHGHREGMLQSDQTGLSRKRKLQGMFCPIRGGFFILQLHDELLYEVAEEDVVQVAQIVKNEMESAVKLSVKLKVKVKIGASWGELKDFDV
Outline: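 Recombinant human Polθ-pol (aa 1792–2590, 5 nM) extends 60 nM Cy5/quencher primer-template with 50 uM dNTPs in 25 mM Tris pH 7.8, 10 mM MgCl2, 2.5% DMSO at 37 °C. After 18 min, stopped with 20 mM EDTA; Cy5 fluorescence read, 7-point series in triplicate, inhibition from the mean.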

[2] = LogP; assay type: physicochemical; details: method not stated
[3] = test system: DLD1 BRCA2 -/- cells; experiment: Clonogenic assay; assay type: cell-based; details: for Average number of colonies counted / Normalized (colonies): DLD1 BRCA2 NULL, 3 treatments were given; for average / percent suvival / replicate counts: DLD1-BRCA2 null cells
Outline: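 Cells seeded at low density (300–1000 per well, by plate size and genotype), medium changed every 2 days, colonies grown 10–12 days. Fixed in water:ethanol:acetic acid, stained with 0.5% crystal violet, then counted; IC50 from ≥3 independent experiments, mean ± SEM.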

[4] = test system: DLD1 Parental cells; experiment: Clonogenic assay; assay type: cell-based; details: DLD1 PARENTAL, 3 treatments were given
Experimental: Cells were plated on six or twelve or twenty-four well plates. In six well plate, 1000 cells/ well of BRCA2 -/-, BRCA1 -/-, PALB2 mut and 500 cells/ well of wildtype pair was plated; In twelve well plate, 600 cells/ well of BRCA2 -/-, BRCA1 -/-, PALB2 mut and 400 cells/ well of wildtype pair was plated; In twenty-four well plate, 500 cells/ well of BRCA2 -/-, BRCA1 -/-, PALB2 mut and 300 cells/ well of wildtype pair was plated. For MEFs, 300 cells per well in six-well plate were seeded. The medium was replaced every 2 days until the colonies were ready for staining in 10–12 days. For staining: Medium was removed from plates, and cells were rinsed with PBS. Fixation was carried out with—Water: Ethanol: Acetic acid (5:4:1) for 30 min followed by staining of colonies with 0.5% crystal violet in Water: Ethanol (3:2) for 2 h at room temperature. The plates were rinsed with water and left for drying overnight at room temperature. Colonies were then counted and IC50 was calculated using results from 3 or more independent experiments. Response curves are shown as mean colony formation +/- S.E.M.

[5] = RTX-152 1.25 micro M + OLA 3.125 nano M
[6] = RTX-152 1.25 micro M + OLA 6.25 nano M
[7] = RTX-152 1.25 micro M + OLA 12.50 nano M
[8] = RTX-152 1.25 micro M + OLA 25.00 nano M
[9] = RTX-152 1.25 micro M + OLA 50.00 nano M
[10] = RTX-152 1.25 micro M + OLA 100.00 nano M
[11] = RTX-152 1.25 micro M, OLA 0.00 nano M
[12] = RTX-152 2.5 micro M + OLA 3.125 nano M
[13] = RTX-152 2.5 micro M + OLA 6.25 nano M
[14] = RTX-152 2.5 micro M + OLA 12.50 nano M
[15] = RTX-152 2.5 micro M + OLA 25.00 nano M
[16] = RTX-152 2.5 micro M + OLA 50.00 nano M
[17] = RTX-152 2.5 micro M + OLA 100.00 nano M
[18] = RTX-152 2.5 micro M, OLA 0.00 nano M
[19] = RTX-152 5 micro M + OLA 3.125 nano M
[20] = RTX-152 5 micro M + OLA 6.25 nano M
[21] = RTX-152 5 micro M + OLA 12.50 nano M
[22] = RTX-152 5 micro M + OLA 25.00 nano M
[23] = RTX-152 5 micro M + OLA 50.00 nano M
[24] = RTX-152 5 micro M + OLA 100.00 nano M
[25] = RTX-152 5 micro M, OLA 0.00 nano M

## CN1CCN(c2cc(C(F)(F)F)cc(C(F)(F)F)c2OC(=O)N(C)c2ccc(F)cc2)C1=O [RTx-152]
[1]
  IC50: 6 nM and 6.2 nM and 4 to 6 nM
[2]
  logP: 4.2
[3]; 2.5 micro M
  Average number of colonies counted: 47.3333
  Normalized (colonies): 65.5172
[3]; 5 micro M
  Average number of colonies counted: 40.3333
  Normalized (colonies): 54.4828
[3]; 10 micro M
  Average number of colonies counted: 22.6667
  Normalized (colonies): 31.0345
[3]; 20 micro M
  Average number of colonies counted: 15
  Normalized (colonies): 20.6897
[3]; Homo sapiens, DLD-1, read-out: IC50 clonogenic survival
  IC50: ~6000 nM
[3]; [5]
  average: 78.6667
  percent suvival: 75.8842%
  replicate counts: 75 and 82 and 79
[3]; [6]
  average: 66.6667
  percent suvival: 64.3087%
  replicate counts: 67 and 70 and 63
[3]; [7]
  average: 40
  percent suvival: 38.5852%
  replicate counts: 36 and 44 and 40
[3]; [8]
  average: 32.6667
  percent suvival: 31.5113%
  replicate counts: 35 and 31 and 32
[3]; [9]
  average: 20
  percent suvival: 19.2926%
  replicate counts: 22 and 20 and 18
[3]; [10]
  average: 11
  percent suvival: 10.6109%
  replicate counts: 8 and 11 and 14
[3]; [11]
  average: 95
  percent suvival: 91.6399%
  replicate counts: 91 and 96 and 98
[3]; [12]
  average: 71
  percent suvival: 68.4887%
  replicate counts: 68 and 70 and 75
[3]; [13]
  average: 51
  percent suvival: 49.1961%
  replicate counts: 54 and 47 and 52
[3]; [14]
  average: 37.6667
  percent suvival: 36.3344%
  replicate counts: 35 and 40 and 38
[3]; [15]
  average: 21.6667
  percent suvival: 20.9003%
  replicate counts: 26 and 20 and 19
[3]; [16]
  average: 13
  percent suvival: 12.5402%
  replicate counts: 10 and 16 and 13
[3]; [17]
  average: 3.667
  percent suvival: 3.537%
  replicate counts: 7 and 2 (2×)
[3]; [18]
  average: 80
  percent suvival: 77.1704%
  replicate counts: 82 and 80 and 78
[3]; [19]
  average: 45.3333
  percent suvival: 43.7299%
  replicate counts: 49 and 42 and 45
[3]; [20]
  average: 38
  percent suvival: 36.6559%
  replicate counts: 38 and 32 and 44
[3]; [21]
  average: 19.6667
  percent suvival: 18.9711%
  replicate counts: 19 and 22 and 18
[3]; [22]
  average: 7.333
  percent suvival: 7.074%
  replicate counts: 10 and 8 and 4
[3]; [23]
  average: 1.667
  percent suvival: 1.608%
  replicate counts: 3 and 1 (2×)
[3]; [24]
  average: 1
  percent suvival: 0.9646%
  replicate counts: 1 and 0 and 2
[3]; [25]
  average: 73
  percent suvival: 70.418%
  replicate counts: 70 and 78 and 71
[3]; clonogenic survival
  potency in BRCA2-null cells compared with RTx-161: moderately higher IC50
[3]; clonogenic survival, Combenefit synergy
  combination with Olaparib: synergistic activity
[3]; colony survival, versus BRCA2-WT
  selective killing / synthetic lethality in BRCA2-null DLD1 cells: selective killing; also recorded: induction of synthetic lethality
[4]; 2.5 micro M
  Average number of colonies counted: 115
  Normalized (colonies): 97.4576
[4]; 5 micro M
  Normalized (colonies): 97.4576
[4]; 10 micro M
  Normalized (colonies): 95.7627
[4]; 20 micro M
  Average number of colonies counted: 113
  Normalized (colonies): 95.7627
